Source: patent US20080171729A1, “Use Of A Steroid For Enhancement Of Skin Permeability” (Novartis AG, priority 2004, published 2008)

Experiment: Skin penetration/permeation assay in static Franz-type diffusion cells, untreated or corticosteroid pre-treated split-thickness skin
Type: in vitro ADME, domestic pigs
Procedure: Three young, male castrated domestic pigs with body weights of approximately 15 kg are used as skin donors. The animals are obtained from a local breeder and maintained under standardized conditions (22±1°, 55±5% relative humidity, 10 changes of fresh air/hour, 12 hours day/12 hours night cycle). After a settling-in period of 7 days the pigs are treated topically on test areas on the dorsolateral back • with CS solutions in EtOH/propylene glycol (3+7, v/v) as a solvent, and • contra-laterally with solvent alone, twice daily for 5 days. HC (Sigma) at 1.0%, MOM (Sequoia Research Products) at 0.1% and CLO (Sigma) at 0.05% are used as CS. The CS-samples and solvent alone are applied in volumes of 50 μl to skin areas of 3.5×6.5 cm each. All three CS and solvent alone are applied to all animals. 16 hours after the last application the animals are killed and the treated skin samples are dissected. Full-thickness skin samples are dissected from vehicle- and CS-treated sites and cut into 0.4 mm split-thickness skin samples with a dermatome (Aesculap®). The samples include the epidermal layers and the superficial part of the dermis but no deep dermal layers and no subcutaneous fat. […] Schmook F B, Stütz A, Reinhardt J, Skin Pharmacol 1993; 6: 116-124. PBS/EtOH 3:1 is used as receptor phase. All experiments are performed at 32° in triplicates for 48 hours. Test compounds are applied to the epidermal side of the skin samples in their marketed formulations, i.e. Elidel® 1% cream (pimecrolimus) and Protopic® 0.1% ointment (tacrolimus), each in amounts of 300 mg. Samples of 100 μl are taken from the receptor phase at 5 time points during the 48-hours experiment and replaced by fresh receptor fluid. After addition of an internal standard (ASD732, see e.g. EP569337) the samples are directly analyzed by RPLC using MS-based detection. […] Specimens from the stripped skin are taken with a biopsy punch, weighed and then homogenized in 0.1 M sodium phosphate buffer, pH 7. Following addition of an internal standard (ASD732) and buffer of pH 10 to the homogenates, extraction is performed with tert-butyl methylether. Solvent from each extract obtained is evaporated, each residue obtained is redissolved and subjected to analysis by RPLC using MS-based detection. Receptor fluid samples are analyzed by RP-HPLC with MS detection in ESI positive mode (LC-MS/MS analysis). The MS/MS mode is used to increase selectivity. LC-MS/MS analysis is carried out with an Agilent 1100 Series Capillary LC System coupled to a Finnigan LCQ mass spectrometer. A Phenomenex Luna C18(2) column (3 μm, 100×2 mm) equipped with a precolumn is used and eluted isocratically with a flow rate of 100 μl/minute at 60°. The effluent is delivered unsplit to the ESI ion-source. Under the chromatographic conditions used, all compounds tested yield a strong sodium adduct. For MS/MS parent ions are selected. The quantification of the parent ions is based on the area ratio of the fragment ions to the fragment ion of the internal standard.

[1] = pre-treated skin compared with untreated skin

Row | permeation rate increased by factor (CLO pre-treatment compared with untreated skin) | permeation rate increased by factor (HC-pre-treatment compared with untreated skin) | permeation rate increased by factor (MOM pre-treatment compared with untreated skin) | skin penetration (skin concentration) enhanced [1] | permeation rate of tacrolimus in comparison with pimecrolimus, times higher (CLO-pretreated skin) | permeation rate of tacrolimus in comparison with pimecrolimus, times higher (HC-pre-treated skin) | permeation rate of tacrolimus in comparison with pimecrolimus, times higher (MOM-pre-treated skin) | permeation rate increased by factors (corticosteroid pretreated samples (range over HC, MOM, CLO) compared with untreated skin) | skin penetration (skin concentration) enhanced, in words [1] | permeation rate of tacrolimus in comparison with pimecrolimus, times higher (untreated skin) | SMILES
1 | 4.1 | 3.8 | 2.9 | at least 10% | – | – | – | – | – | – | CC[C@@H]1/C=C(\C)C[C@H](C)C[C@H](OC)[C@H]2O[C@@](O)(C(=O)C(=O)N3CCCC[C@H]3C(=O)O[C@H](/C(C)=C/[C@@H]3CC[C@H](Cl)[C@H](OC)C3)[C@H](C)[C@@H](O)CC1=O)[C@H](C)C[C@@H]2OC [pimecrolimus]
2 | – | – | – | – | 3.5 | 5.9 | 7.1 | 1.3-1.9 | not significantly | 11.2 | C=CC[C@@H]1/C=C(\C)C[C@H](C)C[C@H](OC)[C@H]2O[C@@](O)(C(=O)C(=O)N3CCCC[C@H]3C(=O)O[C@H](/C(C)=C/[C@@H]3CC[C@H](O)[C@H](OC)C3)[C@H](C)[C@@H](O)CC1=O)[C@H](C)C[C@@H]2OC [tacrolimus]
